The values below come from patent US8148391B2 (Cephalon, Inc., priority 2006, dated 2012).

Assay [1] has as its target T1, c-Met (cytoplasmic domain) (Homo sapiens, UniProt P08581).
T1 construct: 10 ng/mL c-Met (cytoplasmic domain, Invitrogen Corporation #PV3143); purchased Invitrogen Corporation PV3143
Put plainly: c-Met Kinase Assay (same methods as for ALK, with modifications). Format: biochemical. In outline: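 IC50 values were fitted by variable-slope sigmoidal regression of percent inhibition against log compound concentration. Phosphorylation was read with Eu-N1 PT66 antibody after a 15 min, 37 °C reaction. The reaction was initiated with 10 ng/mL c-Met cytoplasmic domain on wells coated with 10 μg/mL PLC-γ in TBS.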

The target in assay [2] is T2, baculovirus-expressed ALK (Homo sapiens, UniProt Q9UM73).
T2 construct: host or cells: baculovirus expression system
As to the kind of experiment: ALK Kinase Assay (ELISA-type, time-resolved fluorescence). The format is biochemical. In outline:
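Wells were coated with phospholipase C-γ at 10 μg/mL in Tris-buffered saline. Adding 30 ng/ml enzyme started the reaction, which ran at 37° C for 15 minutes before Eu-N1 PT66 antibody detection. Percent inhibition versus log10 concentration gave IC50 by variable-slope fit.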
For orientation: An ELISA detects its analyte on a solid surface through an enzyme-linked reagent.

[3] abbreviates: 1 μM ATP (Km level), read-out: cMet Activity (c-Met Kinase Inhibition, IC50).
The mark [4] stands for this setting: 1 μM ATP (Km level), read-out: ALK Activity (ALK Kinase Inhibition, IC50).
Setting [5] is: c-Met kinase inhibition, 1 μM ATP, read-out: cMet Activity.
[6] abbreviates: ALK kinase inhibition, 1 μM ATP, read-out: ALK Activity.
[7] abbreviates: c-Met kinase inhibition, 1 μM ATP (Km level), read-out: cMet Activity.
The mark [8] stands for this setting: ALK kinase inhibition, 1 μM ATP (Km level), read-out: ALK Activity.
Setting [9] is: 1 μM ATP (Km level), 10 ng/mL c-Met, read-out: cMet Activity (c-Met kinase inhibition, IC50 class).
Setting [10] is: 1 μM ATP (Km level), 30 ng/ml ALK, 37° C., 15 minutes, read-out: ALK Activity (ALK kinase inhibition, IC50 class).

The structures appear in SMILES notation. pIC50: −log10 of the molar value. Where two headings read alike, the source gives them in different places. Bounds are passed on as bounds.

T2 sequence (Q9UM73 19-1620): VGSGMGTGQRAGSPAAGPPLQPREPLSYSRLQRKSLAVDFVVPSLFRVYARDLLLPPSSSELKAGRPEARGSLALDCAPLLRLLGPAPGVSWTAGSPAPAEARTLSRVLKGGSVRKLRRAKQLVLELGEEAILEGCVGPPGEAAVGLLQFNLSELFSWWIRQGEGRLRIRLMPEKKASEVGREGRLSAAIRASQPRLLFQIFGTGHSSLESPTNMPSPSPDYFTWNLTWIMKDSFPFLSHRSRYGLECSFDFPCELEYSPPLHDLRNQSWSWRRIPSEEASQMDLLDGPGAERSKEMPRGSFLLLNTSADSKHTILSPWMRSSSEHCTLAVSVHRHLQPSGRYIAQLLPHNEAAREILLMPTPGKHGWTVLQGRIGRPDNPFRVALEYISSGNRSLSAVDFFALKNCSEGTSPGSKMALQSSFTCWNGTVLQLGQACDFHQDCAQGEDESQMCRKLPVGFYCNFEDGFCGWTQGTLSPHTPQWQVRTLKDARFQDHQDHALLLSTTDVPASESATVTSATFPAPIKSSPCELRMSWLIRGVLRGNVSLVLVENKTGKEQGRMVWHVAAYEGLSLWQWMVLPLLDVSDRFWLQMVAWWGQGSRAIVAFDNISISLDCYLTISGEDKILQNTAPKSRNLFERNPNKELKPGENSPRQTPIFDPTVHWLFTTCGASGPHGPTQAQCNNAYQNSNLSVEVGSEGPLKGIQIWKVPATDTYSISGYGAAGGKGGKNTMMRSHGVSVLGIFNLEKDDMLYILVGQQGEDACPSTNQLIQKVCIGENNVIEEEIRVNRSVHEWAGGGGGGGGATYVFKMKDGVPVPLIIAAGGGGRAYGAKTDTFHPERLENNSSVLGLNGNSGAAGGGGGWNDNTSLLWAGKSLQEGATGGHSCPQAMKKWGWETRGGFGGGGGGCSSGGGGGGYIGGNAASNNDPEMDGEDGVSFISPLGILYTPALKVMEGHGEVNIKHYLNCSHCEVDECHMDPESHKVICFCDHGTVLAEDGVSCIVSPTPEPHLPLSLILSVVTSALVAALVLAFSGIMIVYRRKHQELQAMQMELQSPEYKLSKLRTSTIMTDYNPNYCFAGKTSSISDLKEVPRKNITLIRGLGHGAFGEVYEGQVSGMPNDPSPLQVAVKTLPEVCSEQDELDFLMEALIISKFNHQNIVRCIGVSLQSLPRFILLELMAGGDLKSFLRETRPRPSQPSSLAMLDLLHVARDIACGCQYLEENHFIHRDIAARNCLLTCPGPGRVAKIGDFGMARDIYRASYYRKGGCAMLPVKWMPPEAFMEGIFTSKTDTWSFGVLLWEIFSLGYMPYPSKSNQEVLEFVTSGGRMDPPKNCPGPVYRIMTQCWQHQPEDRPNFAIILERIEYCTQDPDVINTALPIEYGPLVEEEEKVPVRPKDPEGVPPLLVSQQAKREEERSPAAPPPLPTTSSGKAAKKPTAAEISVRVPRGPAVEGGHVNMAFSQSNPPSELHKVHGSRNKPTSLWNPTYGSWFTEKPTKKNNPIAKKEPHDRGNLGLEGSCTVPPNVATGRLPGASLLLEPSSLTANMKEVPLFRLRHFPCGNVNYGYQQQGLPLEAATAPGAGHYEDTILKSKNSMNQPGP
T1 sequence (P08581 956-1390 limits assumed): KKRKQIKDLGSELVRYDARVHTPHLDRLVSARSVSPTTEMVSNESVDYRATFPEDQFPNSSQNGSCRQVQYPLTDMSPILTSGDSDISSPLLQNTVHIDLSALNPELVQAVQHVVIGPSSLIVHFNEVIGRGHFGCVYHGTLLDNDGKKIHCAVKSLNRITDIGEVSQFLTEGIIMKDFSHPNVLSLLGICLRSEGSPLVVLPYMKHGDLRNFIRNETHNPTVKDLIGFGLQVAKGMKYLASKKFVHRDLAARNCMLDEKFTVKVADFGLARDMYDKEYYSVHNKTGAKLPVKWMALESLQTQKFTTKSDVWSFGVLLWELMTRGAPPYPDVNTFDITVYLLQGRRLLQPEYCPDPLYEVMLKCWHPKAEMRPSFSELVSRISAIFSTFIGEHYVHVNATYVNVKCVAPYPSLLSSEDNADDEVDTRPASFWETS

As to `COc1cc(N2CCOCC2)ccc1Nc1nc(Nc2ccc3c(c2OC)CCC(N2CCOCC2)CC3)ncc1Cl` (stereo not shown) [Example 894, 5-Chloro-N*4*-(2-methoxy-4-morpholin-4-yl-phenyl)-N*2*-(1-methoxy-7-morpholin-4-yl-6,7,8,9-tetrahydro-5H-benzocyclohepten-2-yl)-pyrimidine-2,4-diamine], the values for the pIC50 in assay [1] (setting [3]) and in assay [2] (setting [4]) were under 5.00 and over 7.00, respectively.

Consider `CCN1C(=O)CCC(C)(C)c2ccc(Nc3ncc(Cl)c(Nc4ccc(N5CCOCC5)cc4OC)n3)cc21` [Example 1587, 8-[5-Chloro-4-(2-methoxy-4-morpholin-4-yl-phenylamino)-pyrimidin-2-ylamino]-1-ethyl-5,5-dimethyl-1,3,4,5-tetrahydro-benzo[b]azepin-2-one], for which the pIC50 is 5.00 to 6.00 in assay [1] (setting [5]) and over 7.00 in assay [2] (setting [6]).

Consider `CNC(=O)c1cccc(Br)c1Nc1nc(Nc2ccc3c(c2)CCOC(=O)N3C)ncc1Cl` [Example 1751, 3-Bromo-2-[5-chloro-2-(5-methyl-6-oxo-5,6,8,9-tetrahydro-7-oxa-5-aza-benzocyclohepten-2-ylamino)-pyrimidin-4-ylamino]-N-methyl-benzamide], for which the pIC50 is over 7.00 in assay [1] (setting [5]) and 5.00 to 6.00 in assay [2] (setting [6]).

As to `COc1cc(N2CCOCC2)ccc1Nc1nc(Nc2ccc3c(c2)N(C(C)C)C(=O)CCC3(C)C)ncc1Cl` [Example 1591, 8-[5-Chloro-4-(2-methoxy-4-morpholin-4-yl-phenylamino)-pyrimidin-2-ylamino]-1-isopropyl-5,5-dimethyl-1,3,4,5-tetrahydro-benzo[b]azepin-2-one], the figures for the pIC50 in assay [1] (setting [5]) and in assay [2] (setting [6]) were under 5.00 and over 7.00, respectively.

As to `COc1cc(N2CCOCC2)ccc1Nc1nc(Nc2ccc3c(c2)CCCCN3C)ncc1Cl` [Example 105, 5-Chloro-N*4*-(2-methoxy-4-morpholin-4-yl-phenyl)-N*2*-(1-methyl-2,3,4,5-tetrahydro-1H-benzo[b]azepin-7-yl)-pyrimidine-2,4-diamine], the pIC50 in assay [1] (setting [7]) is under 5.00; in assay [2] (setting [8]) it was over 7.00.

`COCCN1CCc2ccc(Nc3ncc(Cl)c(N[C@@H]4CCC[C@H]4NS(C)(=O)=O)n3)cc2CC1` (relative stereo) [Example 371, N-(trans-2-{5-Chloro-2-[3-(2-methoxy-ethyl)-2,3,4,5-tetrahydro-1H-benzo[d]azepin-7-ylamino]-pyrimidin-4-ylamino}-cyclopentyl)-methanesulfonamide]: the pIC50 in assay [1] (setting [7]) is 5.00 to 6.00; in assay [2] (setting [8]) it was 6.00 to 7.00.

`COCCN1CCc2ccc(Nc3ncc(Cl)c(N[C@H]4CC[C@@H](NS(C)(=O)=O)CC4)n3)cc2CC1` [Example 1381, cis-N-(4-{5-Chloro-2-[3-(2-methoxy-ethyl)-2,3,4,5-tetrahydro-1H-benzo[d]azepin-7-ylamino]-pyrimidin-4-ylamino}-cyclohexyl)-methanesulfonamide]: the results for the pIC50 in assay [1] (setting [9]) and in assay [2] (setting [10]) were 5.00 to 6.00 and 6.00 to 7.00, respectively.

For `CCN1C(=O)[C@H](NC(=O)C2CC2)CCc2c1ccc(Nc1ncc(Cl)c(N[C@H]3[C@@H](C(N)=O)[C@@H]4C=C[C@H]3C4)n1)c2OC` (single isomer, unassigned) [Example 1357], the pIC50 is under 5.00 in assay [1] (setting [9]) and over 7.00 in assay [2] (setting [10]).

In the case of `O=C1CCCc2ccc(Nc3ncc(Cl)c(Nc4c(F)cc(F)cc4N4CCOCC4)n3)cc2N1` [Example 1286, 8-[5-Chloro-4-(2,4-difluoro-6-morpholin-4-yl-phenylamino)-pyrimidin-2-ylamino]-1,3,4,5-tetrahydro-1-benzazepin-2-one], the pIC50 in assay [1] (setting [9]) and in assay [2] (setting [10]) was 5.00 to 6.00 in each case.

Regarding `CCOC(=O)N1C2CCC1c1cc(Nc3ncc(Cl)c(Nc4ccccc4C(=O)NC)n3)ccc1C2` (stereo not shown) [Example 67, 4-[5-Chloro-4-(2-methylcarbamoyl-phenylamino)-pyrimidin-2-ylamino]-12-aza-tricyclo[7.2.1.0*2,7*]dodeca-2(7),3,5-triene-12-carboxylic acid ethyl ester], the pIC50 in assay [1] (setting [7]) and in assay [2] (setting [8]) was over 7.00 throughout.

For the compound `CCCCNC(=O)c1ccccc1Nc1nc(Nc2ccc3c(c2)C(C)(C)CCC(=O)N3)ncc1Cl` [Example 1027, N-Butyl-2-[5-chloro-2-(5,5-dimethyl-2-oxo-2,3,4,5-tetrahydro-1H-benzo[b]azepin-7-ylamino)-pyrimidin-4-ylamino]-benzamide], the pIC50 was 5.00 to 6.00 in assay [1] (setting [9]) and over 7.00 in assay [2] (setting [10]).

In the case of `COc1cc2c(cc1Nc1ncc(Cl)c(Nc3ccccc3S(=O)(=O)N(C)C)n1)CCC(N1CCOCC1)CC2` (stereo not shown) [Example 1049, 2-[5-Chloro-2-(3-methoxy-7-morpholin-4-yl-6,7,8,9-tetrahydro-5H-benzocyclohepten-2-ylamino)-pyrimidin-4-ylamino]-N,N-dimethyl-benzenesulfonamide], the pIC50 is under 5.00 in assay [1] (setting [9]) and over 7.00 in assay [2] (setting [10]).

`COc1cc2c(cc1Nc1ncc(Cl)c(N[C@@H]3CCCC[C@H]3NS(C)(=O)=O)n1)CCN(C(=O)CN(C)C)CC2` [Example 1125, N-((1R,2R)-2-{5-Chloro-2-[3-(2-dimethylamino-acetyl)-8-methoxy-2,3,4,5-tetrahydro-1H-benzo[d]azepin-7-ylamino]-pyrimidin-4-ylamino}-cyclohexyl)-methanesulfonamide]: the results for the pIC50 in assay [1] (setting [9]) and in assay [2] (setting [10]) were under 5.00 and over 7.00, respectively.

As for `CNC(=O)c1ccccc1Nc1nc(Nc2ccc3c(c2)C2CCC3CN(CCOC)C2)ncc1Cl` (stereo not shown) [Example 282, 2-{5-Chloro-2-[10-(2-methoxy-ethyl)-10-aza-tricyclo[6.3.2.0*2,7*]trideca-2,4,6-trien-4-ylamino]-pyrimidin-4-ylamino}-N-methyl-benzamide], the pIC50 in assay [1] (setting [7]) and in assay [2] (setting [8]) was over 7.00 each time.

Turning to `CCN1CCN(CC)c2cc(Nc3ncc(Cl)c(Nc4ccccc4C(=O)NC)n3)ccc2C1` [Example 419, 2-[5-Chloro-2-(1,4-diethyl-2,3,4,5-tetrahydro-1H-benzo[e][1,4]diazepin-8-ylamino)-pyrimidin-4-ylamino]-N-methylbenzamide], the pIC50 in assay [1] (setting [7]) and in assay [2] (setting [8]) was over 7.00 in each case.

For `CCNC(=O)c1cccc(F)c1Nc1nc(Nc2cc3c(cc2OC)CCN(CC(F)F)CC3)ncc1Cl` [Example 777, 2-{5-Chloro-2-[3-(2,2-difluoro-ethyl)-8-methoxy-2,3,4,5-tetrahydro-1H-benzo[d]azepin-7-ylamino]-pyrimidin-4-ylamino}-N-ethyl-3-fluoro-benzamide], the pIC50 in assay [1] (setting [3]) is 5.00 to 6.00; in assay [2] (setting [4]), over 7.00.

With `COCCN1CCc2ccc(Nc3ncc(Cl)c(NCC(C)NS(C)(=O)=O)n3)cc2CC1` (stereo not shown) [Example 301, N-(2-{5-Chloro-2-[3-(2-methoxy-ethyl)-2,3,4,5-tetrahydro-1H-benzo[d]azepin-7-ylamino]-pyrimidin-4-ylamino}-1-methyl-ethyl)-methanesulfonamide], the pIC50 in assay [1] (setting [7]) is 5.00 to 6.00; in assay [2] (setting [8]), 6.00 to 7.00.

Turning to `COc1ccc(Nc2nc(Nc3cc4c(cc3OC)CCN(CC(=O)N(C)C)CC4)ncc2Cl)c(OC)n1` [Example 1200, 2-{7-[5-Chloro-4-(2,6-dimethoxy-pyridin-3-ylamino)-pyrimidin-2-ylamino]-8-methoxy-1,2,4,5-tetrahydro-benzo[d]azepin-3-yl}-N,N-dimethyl-acetamide], the pIC50 in assay [1] (setting [9]) is 5.00 to 6.00; in assay [2] (setting [10]), over 7.00.

For `CNC(=O)c1cc(C)cc(C)c1Nc1nc(Nc2ccc3c(c2)CCOC(=O)N3C)ncc1Cl` [Example 1750, 2-[5-Chloro-2-(5-methyl-6-oxo-5,6,8,9-tetrahydro-7-oxa-5-aza-benzocyclohepten-2-ylamino)-pyrimidin-4-ylamino]-3,5,N-trimethyl-benzamide], the pIC50 in assay [1] (setting [5]) is over 7.00; in assay [2] (setting [6]) it was 5.00 to 6.00.

As to `CS(=O)(=O)N[C@@H]1CCCC[C@H]1Nc1nc(Nc2ccc3c(c2)CN(CCO)CCS3)ncc1Cl` [Example 525, N-((1R,2R)-2-{-5-Chloro-2-[8-(2-hydroxy-ethyl)-6,7,8,9-tetrahydro-5-thia-8-azabenzo-cyclohepten-2-ylamino]-pyrimidin-4-ylamino}cyclohexyl)-methanesulfonamide], the pIC50 in assay [1] (setting [3]) is 5.00 to 6.00; in assay [2] (setting [4]) it was 6.00 to 7.00.

On to `COc1c(Nc2ncc(Cl)c(N[C@@H]3CCCC[C@H]3NS(C)(=O)=O)n2)ccc2c1CCC(NCCO)CC2` (single isomer, unassigned) [Example 699], for which the values for the pIC50 in assay [1] (setting [3]) and in assay [2] (setting [4]) were under 5.00 and over 7.00, respectively.

Consider `COCCN1CCc2ccc(Nc3ncc(Cl)c(N[C@@H]4CCCC[C@H]4NS(C)(=O)=O)n3)cc2CC1` [Example 36, N-((1R,2R)-2-{5-Chloro-2-[3-(2-methoxy-ethyl)-2,3,4,5-tetrahydro-1H-benzo[d]azepin-7-ylamino]-pyrimidin-4-ylamino}-cyclohexyl)-methanesulfonamide], for which the pIC50 in assay [1] (setting [7]) is 5.00 to 6.00; in assay [2] (setting [8]), over 7.00.

For `CNC(=O)c1ccccc1Nc1nc(Nc2ccc3c(c2Cl)C2CCC(C3)N2C(C)C)ncc1Cl` (stereo not shown) [Example 86, 2-[5-Chloro-2-(3-chloro-12-isopropyl-12-aza-tricyclo[7.2.1.0*2,7*]dodeca-2(7),3,5-trien-4-ylamino)-pyrimidin-4-ylamino]-N-methyl-benzamide], the pIC50 in assay [1] (setting [7]) is 6.00 to 7.00; in assay [2] (setting [8]), over 7.00.
